Assay [1] concerns the target T1, TPα (Homo sapiens, UniProt P21731).
T1 construct: expressed in transfected cells
T1 sequence (P21731 1-343): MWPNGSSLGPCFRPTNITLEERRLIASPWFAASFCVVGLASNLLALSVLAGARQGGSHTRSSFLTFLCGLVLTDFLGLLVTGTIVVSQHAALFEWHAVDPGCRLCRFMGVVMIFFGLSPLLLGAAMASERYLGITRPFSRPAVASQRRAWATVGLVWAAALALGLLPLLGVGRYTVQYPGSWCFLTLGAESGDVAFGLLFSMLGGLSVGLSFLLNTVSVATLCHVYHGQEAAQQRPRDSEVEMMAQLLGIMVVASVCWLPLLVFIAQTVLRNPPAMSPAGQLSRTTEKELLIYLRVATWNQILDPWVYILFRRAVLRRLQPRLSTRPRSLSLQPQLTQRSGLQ
Kind of assay: U46619-induced [Ca2+]i mobilization in HEK.TPα cells. It counts as cell-based. Conditions: 1 μM U46619, % of agonist-induced response in vehicle-treated cells; for remaining activity at 1 µM: antagonist 1 μM, read-out: Percentage of Control, TPα, 1 μM; for remaining activity at 10 µM: antagonist 10 μM, read-out: Percentage of Control, TPα, 10 μM. The source says:
(§1) An appropriate functional test for the evaluation of the agonistic and/or antagonistic potency of the compounds of the invention is the determination of calcium flux. Both TPα and TPβ are coupled to the G-protein Gαq. Therefore, stimulation of these receptors ultimately leads to a release of intracellular calcium ([Ca^2+]i) from intracellular stores. Consequently, the determination of [Ca^2+]i flux represents an appropriate functional test for the evaluation of the agonistic/antagonistic potency of compounds of the invention. Calcium can be measured using a molecule characterized by the covalent combination of a Ca^2+ chelating group and a fluorophore group. The Ca^2+ binding properties of these indicators are formed by the presence of a tetracarboxylic acid core as found for example in EGTA (Ethylene Glycol bis(2-aminoethyl)Tetraacetic Acid). Binding of Ca^2+ produces a wavelength shift in either the excitation or emission fluorescence spectra or a change in the emission intensity. Whereas the Ca^2+ binding to EGTA is pH dependent, recent dyes are designed from an EGTA derivative, BAPTA (1,2-Bis(2-Aminophenoxy)ethane-N,N,N′,N′-Tetraacetic Acid). Loading of these dyes inside cells commonly uses esterified forms (acetoxymethyl ester), which are able to cross the cell membranes and are subsequently hydrolyzed by esterases inside the cell.
(§2) Estimation of [Ca^2+]i flux is calculated from the fluorescence signal (F). For calibration, the maximal fluorescence (Fmax, Ca^2+-saturated form of the dye) as well as minimal fluorescence (Fmin, Ca^2+-free form of the dye) must be determined. These parameters are determined usually in situ after the experiment, for example by subsequent addition to the mixture of a cell-disrupting agent that releases all Ca^2+ such as Triton X100 and a potent Ca^2+-chelating agent such as EGTA. After subtraction of background fluorescence, [Ca^2+]; flux can be calculated for non-ratiometric indicators.
(§3) Intracellular [Ca^2+]; fluxes were measured using a fluorescence plate reader following a modified protocol of Kassack et al., ‘Quantitative comparison of functional screening by measuring intracellular Ca^2+ with radioligand binding at recombinant human dopamine receptors’, AAPS Pharmsci, 2002, 4(4); 102-111, in cell lines (e.g. HEK293 or other cell type) endogenously-expressing or over-expressing either TPα, TPβ or any other receptor or protein to be screened.
(§4) By way of example, HEK 293 cells which have been grown for 3-4 days in normal growth media (minimum essential media containing 10% FBS and 2 mmol/1 L-glutamine), under normal growth conditions (37° C., in humidified 5% CO2 atmosphere) are washed and harvested in KREBs-HEPES buffer (118 mM NaCl, 4.7 mM KCl, 1.2 mM MgSO4, 1.2 mM KH2PO4, 4.2 mM NaHCO3, 11.7 mM D-glucose, 1.3 mM CaCl2, 10 mM HEPES, pH 7.4). Cells are then incubated with 3 μM Fluo-4 in KREBs-HEPES buffer containing 1% Pluoronic F-127, for 1 hr at 25° C. with agitation. Then, cells are washed in KREBs-HEPES buffer containing 0.5% BSA and re-suspended at a final concentration of 3×10^5 cells/ml. Approx. 5.4×10^4 cells per well are plated in a 96-well plate and pre-incubated with test compounds for 10 m prior to measuring the fluorescence intensity at 520 nm for 25 seconds at 1 s intervals to monitor baseline using the Fluoroskan Ascent. Agonist (e.g., 1 μM U46619) is injected into separate wells by the automatic pipettor and fluorescence intensity is monitored at 520 nm for 75 seconds at 1 s intervals. Thereafter, Triton X100 and EGTA are added sequentially where Fmax refers to maximal fluorescence intensity measured after permeabilization of the cells with 2% Triton X100 and Fmin refers to fluorescence intensity measured after addition of 1 mM EGTA.
(§5) The dye Fluo-4 has its excitation peak at 480 nm, in the visible spectra, which spare cells to be damaged by UV (340-360 nm) stimulation and reduces auto-fluorescence of cells. […]

In assay [2] the target is T2, TPβ (Homo sapiens, UniProt P21731).
T2 construct: expressed in transfected cells
Kind of assay: U46619-induced [Ca2+]i mobilization in HEK.TPβ cells. The following applies: 1 μM U46619; for remaining activity at 1 µM / remaining activity at 10 µM: % of agonist-induced response in vehicle-treated cells; for remaining activity at 1 µM: read-out: Percentage of Control, TPβ, 1 μM; for remaining activity at 10 µM: antagonist 10 μM, read-out: Percentage of Control, TPβ, 10 μM. It counts as cell-based.
From the text: as §1, §2, §3, §4, §5

The text below walks through data of patent US9718781B2, “Methods and compounds for treating proliferative disorders and viral infections” (University College Dublin, National University of Ireland, …, priority 2012, dated 2017).

T2 sequence (P21731 1-407 isoform P21731-2): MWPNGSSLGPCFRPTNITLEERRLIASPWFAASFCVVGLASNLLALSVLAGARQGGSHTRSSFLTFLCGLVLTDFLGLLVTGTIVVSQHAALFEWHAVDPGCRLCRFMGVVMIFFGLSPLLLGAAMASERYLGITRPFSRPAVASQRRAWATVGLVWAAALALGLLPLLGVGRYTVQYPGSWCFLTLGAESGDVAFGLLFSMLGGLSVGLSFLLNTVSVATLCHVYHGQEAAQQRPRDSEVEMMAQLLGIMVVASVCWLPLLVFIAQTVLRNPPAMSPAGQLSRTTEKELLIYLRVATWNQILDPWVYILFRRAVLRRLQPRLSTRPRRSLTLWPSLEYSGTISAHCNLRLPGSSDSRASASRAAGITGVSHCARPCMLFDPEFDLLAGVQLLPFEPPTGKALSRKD

Regarding `COc1ccc(-c2cccc(Oc3ccc(C(C)=O)cc3S(=O)(=O)NC(=O)NC(C)(C)C)c2)cc1` [NTP9, 5-acetyl-N-(tert-butylcarbamoyl)-2-((4′-methoxy-[1,1′-biphenyl]-3-yl)oxy)benzenesulfonamide], the remaining activity at 1 µM in assay [1] came out at 85.9 ± 9.13%; in assay [2] (antagonist 1 μM), 46.3 ± 7.33%. Further, the remaining activity at 10 µM in assay [1] was determined as 70.4 ± 2.47%; in assay [2], 12.2 ± 1.03%.

On to `CNC(=O)c1ccc(Oc2cccc(-c3ccc(OC)cc3)c2)c(S(=O)(=O)NC(=O)NC(C)(C)C)c1` [NTP10], for which the values for the remaining activity at 1 µM in assay [1] and in assay [2] (antagonist 1 μM) were 95.5 ± 4.25% and 96 ± 0.94%, respectively. In addition, the remaining activity at 10 µM in assay [1] came out at 69.8 ± 1.73%; in assay [2] it was 54.7 ± 8.1%.

Consider `COc1ccc(-c2cccc(Oc3ccc(C(=O)NCc4ccccn4)cc3S(=O)(=O)NC(=O)NC(C)(C)C)c2)cc1` [NTP11], for which the remaining activity at 1 µM was 73.1 ± 5.28% in assay [1] and 49.8 ± 1.86% in assay [2] (antagonist 1 μM). Also, the remaining activity at 10 µM is 75.4 ± 5.83% in assay [1] and 20.7 ± 2.81% in assay [2].

As for `COc1ccc(-c2cccc(Oc3ccc(C(=O)NC4COC4)cc3S(=O)(=O)NC(=O)NC(C)(C)C)c2)cc1` [NTP12], the remaining activity at 1 µM was 99.7 ± 2.13% in assay [1] and 84.2 ± 7.51% in assay [2] (antagonist 1 μM). In addition, the remaining activity at 10 µM in assay [1] is 77.9 ± 2.69%; in assay [2], 34.4 ± 2.85%.

Turning to `COc1ccc(-c2cccc(Oc3ccc(C(N)=O)cc3S(=O)(=O)NC(=O)NC(C)(C)C)c2)cc1` [NTP13], the remaining activity at 1 µM in assay [1] was found to be 93.8 ± 13.9%; in assay [2] (antagonist 1 μM), 74 ± 3.66%. Moreover, the remaining activity at 10 µM in assay [1] is 95.2 ± 9.57%; in assay [2], 36.2 ± 0.52%.

Regarding `COCCNC(=O)c1ccc(Oc2cccc(-c3ccc(OC)cc3)c2)c(S(=O)(=O)NC(=O)NC(C)(C)C)c1` [NTP14], the remaining activity at 1 µM in assay [1] came to 83.5 ± 9.26%; in assay [2] (antagonist 1 μM) it was 86.4 ± 7.06%. Further, the remaining activity at 10 µM amounted to 89.1 ± 9.1% in assay [1] and 59.4 ± 7.67% in assay [2].

As for `COc1ccc(-c2cccc(Oc3ccc(C(=O)NCCN(C)C)cc3S(=O)(=O)NC(=O)NC(C)(C)C)c2)cc1` [NTP15], the remaining activity at 1 µM in assay [1] came to 79.8 ± 8.81%; in assay [2] (antagonist 1 μM), 87.6 ± 8.28%. For the same compound, the remaining activity at 10 µM in assay [1] was 52.6 ± 8.42%; in assay [2], 86.1 ± 5.64%.

As to `COc1ccc(-c2cccc(Oc3ccc(C(=O)NCC4CC4)cc3S(=O)(=O)NC(=O)NC(C)(C)C)c2)cc1` [NTP16], the remaining activity at 1 µM is 117 ± 10.2% in assay [1] and 83 ± 7.62% in assay [2] (antagonist 1 μM). Besides, the remaining activity at 10 µM was 96.3 ± 1.24% in assay [1] and 34 ± 3.88% in assay [2].

On to `COc1ccc(-c2cccc(Oc3ccc(C(=O)N4CCC4)cc3S(=O)(=O)NC(=O)NC(C)(C)C)c2)cc1` [NTP17], for which the remaining activity at 1 µM in assay [1] is 83.1 ± 4.85%; in assay [2] (antagonist 1 μM), 51.1 ± 1.13%. Also, the values for the remaining activity at 10 µM in assay [1] and in assay [2] were 59.5 ± 4.07% and 13.3 ± 5.91%, respectively.

Take `COc1ccc(-c2cccc(Oc3ccc(-c4cn[nH]c4)cc3S(=O)(=O)NC(=O)NC(C)(C)C)c2)cc1` [NTP18]: the remaining activity at 1 µM in assay [1] was determined as 93.4 ± 6.17%; in assay [2] (antagonist 1 μM) it was 45 ± 4.34%. Also, the results for the remaining activity at 10 µM in assay [1] and in assay [2] were 73.6 ± 2.98% and 22.6 ± 2.28%, respectively.

In the case of `COc1ccc(-c2cccc(Oc3ccc(-c4c(C)noc4C)cc3S(=O)(=O)NC(=O)NC(C)(C)C)c2)cc1` [NTP19], the figures for the remaining activity at 1 µM in assay [1] and in assay [2] (antagonist 1 μM) were 97.6 ± 8.6% and 77.7 ± 3.24%, respectively. The remaining activity at 10 µM in assay [1] came out at 99.4 ± 16%; in assay [2], 64.5 ± 4.65%.

Turning to `COc1ccc(-c2cccc(Oc3ccc(-c4ccoc4)cc3S(=O)(=O)NC(=O)NC(C)(C)C)c2)cc1` [NTP20], the remaining activity at 1 µM in assay [1] worked out at 72.4 ± 5.97%; in assay [2] (antagonist 1 μM), 42.5 ± 2.32%. In addition, the values for the remaining activity at 10 µM in assay [1] and in assay [2] were 55.7 ± 5.84% and 18.5 ± 3.53%, respectively.

Consider `COc1ccc(-c2cccc(Oc3ccc(-c4ccco4)cc3S(=O)(=O)NC(=O)NC(C)(C)C)c2)cc1` [NTP21], for which the remaining activity at 1 µM came to 78.3 ± 8.28% in assay [1] and 51 ± 1.62% in assay [2] (antagonist 1 μM). The remaining activity at 10 µM in assay [1] worked out at 66.4 ± 4.95%; in assay [2], 32.2 ± 2.89%.

As to `COc1ccc(-c2cccc(Oc3ccc(C(=O)N4CCOCC4)cc3S(=O)(=O)NC(=O)NC(C)(C)C)c2)cc1` [NTP22], the values for the remaining activity at 1 µM in assay [1] and in assay [2] (antagonist 1 μM) were 101 ± 7.28% and 85.1 ± 4.38%, respectively. The remaining activity at 10 µM in assay [1] is 87.6 ± 11.3%; in assay [2], 50.1 ± 4.06%.

In the case of `COc1ccc(-c2cccc(Oc3ccc(C(=O)N4CC(O)C4)cc3S(=O)(=O)NC(=O)NC(C)(C)C)c2)cc1` [NTP23, N-(tert-butylcarbamoyl)-5-(3-hydroxyazetidine-1-carbonyl)-2-((4′-methoxy-[1,1′-biphenyl]-3-yl)oxy)benzenesulfonamide], the remaining activity at 1 µM was 64.2 ± 2.89% in assay [1] and 48.4 ± 2.75% in assay [2] (antagonist 1 μM). Moreover, the remaining activity at 10 µM in assay [1] was 49.9 ± 7.61%; in assay [2] it was 20.4 ± 1.94%.

On to `COc1ccc(-c2cccc(Oc3ccc(C(=O)Nc4ncco4)cc3S(=O)(=O)NC(=O)NC(C)(C)C)c2)cc1` [NTP24], for which the remaining activity at 1 µM in assay [1] was 96.8 ± 3.94%; in assay [2] (antagonist 1 μM), 87.7 ± 8.18%. The remaining activity at 10 µM is 107 ± 6.48% in assay [1] and 37.9 ± 2.61% in assay [2].

In the case of `COc1ccc(-c2cccc(Oc3ccc(C(=O)Nc4ccccc4)cc3S(=O)(=O)NC(=O)NC(C)(C)C)c2)cc1` [NTP25], the remaining activity at 1 µM in assay [1] turned out to be 80 ± 7.15%; in assay [2] (antagonist 1 μM) it was 61.6 ± 1.93%. The remaining activity at 10 µM was 65.5 ± 6.32% in assay [1] and 14.8 ± 2.03% in assay [2].

As for `COc1ccc(-c2cccc(Oc3ccc(S(C)(=O)=O)cc3S(=O)(=O)NC(=O)NC(C)(C)C)c2)cc1` [NTP27, N-(tert-butylcarbamoyl)-2-((4′-methoxy-[1,1′-biphenyl]-3-yl)oxy)-5-(methylsulfonyl)benzenesulfonamide], the remaining activity at 1 µM was 81.1 ± 10.2% in assay [1] and 36.4 ± 3.8% in assay [2] (antagonist 1 μM). The remaining activity at 10 µM in assay [1] turned out to be 68.4 ± 4.56%; in assay [2] it was 16.3 ± 2.39%. The “activity class in HEK.TPβ cells” value in assay [2] (antagonist 1 μM) is on record as “ACTIVE”.

As for `CCNC(=O)c1ccc(Oc2cccc(-c3ccc(OC)cc3)c2)c(S(=O)(=O)NC(=O)NC(C)(C)C)c1` [NTP28], the remaining activity at 1 µM in assay [1] was determined as 108 ± 7.64%; in assay [2] (antagonist 1 μM), 110 ± 1.85%. In addition, the remaining activity at 10 µM in assay [1] is 89.5 ± 10.3%; in assay [2] it was 62.3 ± 4.3%.

For the compound `COc1ccc(-c2cccc(Oc3ccc(-c4ccncc4)cc3S(=O)(=O)NC(=O)NC(C)(C)C)c2)cc1` [NTP29], the remaining activity at 1 µM was 113 ± 8.15% in assay [1] and 100 ± 4.69% in assay [2] (antagonist 1 μM). Also, the remaining activity at 10 µM in assay [1] was 105 ± 8.03%; in assay [2] it was 94.6 ± 3.58%.
